Tested on: drug-resistant Mycobacterium tuberculosis
Settings: 5 micrograms per ml

Substance: Ac-RFMWMR-NH2 [Ac-Arg-Phe-Met-Trp-Met-Arg-NH2]
- % inhibition: 100.0%
